Laboratory results as given in publication PMC10532587, “An Investigation of Structure–Activity Relationships and Cell Death Mechanisms of the Marine Alkaloids Discorhabdins in Merkel Cell Carcinoma Cells” (Marine Drugs, 2023).
pIC50: −log10 of the molar value. Like-named read-outs stand apart in the source and are kept apart here.

Legend:
MKL-1 = test: Cell survival by CellTiterGlo, VP-MCC line MKL-1; format: cell-based; details: VP-MCC; for IC50: MKL-1, CellTiterGlo, normalized to DMSO, read-out: IC50 (nM) MKL-1; for AUC (arbitrary units) MKL-1: area under the dose-response curve
HaCaT = test: Cell survival by CellTiterGlo, control cells; format: cell-based, human; details: for IC50 / pIC50: Homo sapiens, HaCaT; for IC50: control skin cell line, CellTiterGlo, normalized to DMSO, read-out: IC50 (nM) HaCaT; for AUC (arbitrary units) HaCaT: area under the dose-response curve, control cells; for pIC50: read-out: IC50 for control cells
MCC cell lines = test: Cell survival by CellTiterGlo, MCC cell lines together; format: cell-based; details: average over MCC cell lines
Method: (§1) Three methods were employed for assessment of MCC and control cell survival/viability after discorhabdin treatment, two metabolic assays and a cell permeability assay. For all three methods, cells were plated in 384-well plates at 2500 cells/well and treated with various concentrations of discorhabdins for various time periods. CellTiterGlo^TM (Promega, Madison, WI, USA) measures cellular ATP content and was used to estimate potency of discorhabdins in cell viability assays as previously described. Continuous monitoring of metabolic activity was accomplished using a cellular reducing potential luminescence assay, the RealTime-Glo^TM MT Cell Viability Assay (Promega, Madison, WI, USA) according to manufacturer’s instructions. Loss of cell plasma membrane integrity was assessed using a cell-impermeant molecule that becomes fluorescent upon binding DNA [82] in parallel with apoptosis detection per manufacturer’s instructions (RealTimeGlo^TM Annexin V Apoptosis and Necrosis Assay-Promega). Two additional assays of apoptotic cell death were also used. Caspase activation in response to treatment of MCC cells by discorhabdins or bortezomib (as a positive control) was measured using the CaspaseGlo® 3/7 Assay (Promega, Madison, WI, USA) according to the manufacturer’s instructions at multiple time points. Inhibition of apoptotic cell death was investigated using pre-treatment of cells with for 1 h with the pan-caspase inhibitor Z-VAD-FMK (Enzo Life Sciences, Farmingdale, NY, USA) followed by treatment with discorhabdins or bortezomib and estimation of cell viability as outlined above.
(§2) In order to compare responses among all of the discorhabdins and cell lines (98 combinations), dose–response curves were generated using identical discorhabdin dilution series. GraphPad Prism 8 (San Diego, CA, USA) software was utilized to graph dose–response data and to calculate IC50 values and area under the dose–response curves (AUC) along with 95% confidence interval estimates using four-parameter logistic nonlinear regression analysis. For further analysis and comparisons, AUC for each cell line/discorhabdin pair was visualized in a heatmap generated in R version 1.3.1073 (R Core Team (2013). R: A language and environment for statistical computing. R Foundation for Statistical Computing, Vienna, Austria, http://www.R-project.org/ (accessed on 12 January 2023).

MCC26 = test: Cell survival by CellTiterGlo, VN-MCC line MCC26; format: cell-based; details: for IC50: CellTiterGlo, normalized to DMSO; for AUC (arbitrary units) MCC26: area under the dose-response curve
[1] = test system: VP-MCC cell lines (MKL-1, MKL-2, and Waga); test: Selectivity VP-MCC versus control cells (average AUC); format: cell-based
Text: as §2
(§3) Figure S41: Discorhabdi nselectivity
(§4) Discorhabdin selectivity for VP -MCC and VN- MCCcells was estimated by comparison of activity (average AUC) for each dis corhabdin against VP -MCC (panel A) or VN- MCC (panel B) cell lines compared to control cells . Discorhabdins were sort ed by selectivity from most to least selective. - fold dif fer ence = (av e VN -MCC or VP -MCC AUC/ control AUC). Error bars […]
(§5) (1 picture or pasted object on this page, not shown here)

UISO = test: Cell survival by CellTiterGlo, VN-MCC line UISO; format: cell-based; details: for IC50: CellTiterGlo, normalized to DMSO; for AUC (arbitrary units) UISO: area under the dose-response curve
Waga = test: Cell survival by CellTiterGlo, VP-MCC line Waga; format: cell-based; details: for IC50: CellTiterGlo, normalized to DMSO; for AUC (arbitrary units) WaGa: area under the dose-response curve
MCC13 = test: Cell survival by CellTiterGlo, VN-MCC line MCC13; format: cell-based; details: for IC50: CellTiterGlo, normalized to DMSO; for AUC (arbitrary units) MCC13: area under the dose-response curve
[2] = test system: VN-MCC cell lines (MCC13, MCC26, and UISO); test: Selectivity VN-MCC versus control cells (average AUC); format: cell-based
Text: as §2, §3, §4, §5

MKL-2 = test: Cell survival by CellTiterGlo, VP-MCC line MKL-2; format: cell-based; details: for IC50: CellTiterGlo, normalized to DMSO; for AUC (arbitrary units) MKL-2: area under the dose-response curve
[3] = test system: control (HaCaT) and Merkel cell carcinoma cell lines; test: Cell survival by CellTiterGlo, all seven cell lines; format: cell-based; details: for activity on cell viability, in words: MCC and control cell lines; for pIC50: Homo sapiens, HaCaT
Method: as §1, §2
Figure S39: Activity of discorhabdins against M CC cell lines.
The indicated discorh abd ins were ass essed for th eir ability to affect surviv al of control (H aCaT) and Merkel cell carcino ma cell lines (VN-MCC: MCC13, MCC26, UISO and VP -MCC: MKL-1, MKL-2, Wag a). Cells were plat ed at 2500 cells/well and compounds the next day. Cell survival was estimated by CellTiterGlo (normalized to untreated (DMSO) cells on the same plate). Structures w ere o btained from the supplier and/or the PubChem database or as described in the text. Number in bold in ( ) refers to structures in Figure 1 in the text. Curves were plotted and IC50 values and 95% confidence interval calculated by GraphPad software. […]

SMILES | IC50 (MKL-1) [nM] | AUC (arbitrary units) MKL-1 (MKL-1) [arbitrary units] | IC50 (HaCaT) [nM] | AUC (arbitrary units) HaCaT (HaCaT) [arbitrary units] | averaged potency (IC50) across all MCC cell lines tested (MCC cell lines) | IC50 (MCC26) [nM] | AUC (arbitrary units) MCC26 (MCC26) [arbitrary units] | increased activity against VP-MCC compared to the control [1] [fold] | IC50 (UISO) [nM] | AUC (arbitrary units) UISO (UISO) [arbitrary units] | IC50 (Waga) [nM] | AUC (arbitrary units) WaGa (Waga) [arbitrary units] | IC50 (MCC13) [nM] | AUC (arbitrary units) MCC13 (MCC13) [arbitrary units] | IC50 (MKL-2) [nM] | AUC (arbitrary units) MKL-2 (MKL-2) [arbitrary units] | activity on cell viability, in words [3] | also measured
O=C1C(Br)=CC2(C=C1Br)CCNC1=C2C2=NCCc3c(Br)[nH]c(c32)C1=O [Compound 19, 14-bromodiscorhabdin C] | 37.8 | 7.189 | 3740 | 441.7 | sub-micromolar | 893 | 120.6 | > 10 | 412 | 88.25 | 249 | 50.51 | 511 | 90.22 |  |  |  | increased activity against VN-MCC compared to control cells (fold difference) [2]: > 3 fold
Cc1[nH]c2c3c1CCN=C3C1=C(NCCC13C=C(Br)C(=O)C(Br)=C3)C2=O [Compound 18, 14-methyldiscorhabdin C] | 175 | 20.95 | 5380 | 584.7 |  | 3060 | 329.4 | > 10 | 670 | 74.19 | 430 | 51.75 | 1450 | 159.8 |  |  |  | increased activity against VN-MCC compared to control cells (fold difference) [2]: > 3 fold
O=C1CC2SC3CC2(C=C1Br)C1=C(N3)C(=O)c2[nH]cc3c2C1=NCC3 (single isomer, unassigned; (+)) [Compound 1] | 29 | 4.944 | 273 | 29.87 | sub-micromolar | 197 | 88.19 |  | 54 | 7.172 | 57 | 6.873 | 64 | 8.589 | 48 | 6.99 | most generally toxic compound tested | pIC50 (HaCaT): ≥ 6.00
O=C1C=C(SSC2=CC(=O)C(Br)=C[C@]23C=CNC2=C3C3=NCCc4c[nH]c(c43)C2=O)[C@@]2(C=CNC3=C2C2=NCCc4c[nH]c(c42)C3=O)C=C1Br [Compound 10, (−)-(6S,6′S) discorhabdin W] | 136 | 18.4 | 4860 | 538.3 |  | 2560 | 290.1 | > 10 | 1240 | 162.4 | 307 | 40.16 | 1380 | 184.2 | 387 | 55.04 |  | 
CSC1=CC(=O)C(Br)=C[C@]12C=CNC1=C2C2=NCCc3c[nH]c(c32)C1=O [Compound 8, (+)-(6S) N-13-demethyldiscorhabdin U] | 22.7 | 5.221 | 1010 | 123.3 | sub-micromolar | 749 | 80.16 | > 10 | 251 | 32.84 | 86.9 | 14.83 | 299 | 48.65 |  |  | one of the most active compounds tested | pIC50 (HaCaT): ≥ 6.00
O=C1C=C[C@@]23C[C@@H](NC4=C2C2=NCCc5c[nH]c(c52)C4=O)SC3=C1 [Compound 4, (+)-(6S,8S) discorhabdin G*/I] | 481 | 54.17 | 2450 | 267.7 | sub-micromolar | 1280 | 140 |  | 921 | 121.7 | 859 | 105.3 | 940 | 124.8 | 879 | 108.8 |  | 
Cn1cnc(S[C@H]2[C@H]3C(=O)C=C4S[C@H]5C[C@]42C2=C(N5)C(=O)c4[nH]cc5c4C2=[N+]3CC5)c1C[C@H](N)C(=O)O (relative stereo) [Compound 14, (−)-(1R,2R,6R,8S,7′S*) discorhabdin H] |  | 901.7 |  | 992.5 |  |  | 947 |  |  | 952.3 |  | 930 |  | 950.6 |  | 946.5 |  | pIC50 ([3]; CellTiterGlo, 10 µM highest concentration tested, read-out: IC50, all cell lines): < 5.00; pIC50 ([3]; essentially inactive compounds, read-out: average IC50 against all the cell lines): < 5.30
O=C1C=C2SC3CC2(C=C1Br)C1=C(N3)C(=O)c2[nH]cc3c2C1=NCC3 (single isomer, unassigned; (-)) [(-)B] |  | 1.929 |  | 114.3 |  |  | 80.18 |  |  | 33.26 |  | 5.814 |  | 41.45 |  | 9.451 | comparable activity against MCC and control cell lines | 
O=C1C=C[C@]2(C=C1Br)CCNC1=C2C2=NCCc3c[nH]c(c32)C1=O [Compound 22, (+)-(6S)-discorhabdin E] | 125 | 14.16 | 3010 | 328.3 | sub-micromolar | 2000 | 226.2 | > 10 | 459 | 53.3 | 332 | 36.75 | 888 | 106.9 |  |  |  | 
